# Measured values: US10111877B2, “Modulators of androgen synthesis” (Tangent Reprofiling Limited, priority 2012, dated 2018)
# What was measured:
# [1] = system: PC3 cells; test: Cell metabolism inhibition assay (Cell titre Blue) with fatty acids; type: cell-based; settings: 100% = undrugged media
# Experimental: A cell metabolism inhibition assay was performed to determine the effect of different fatty acids on cellular metabolic rate. The fatty acids tested were α-Linolenic acid, omega 3 fatty acid (ALA), Arachidonic acid, omega 6 fatty acid (AA), 9Z, 11E conjugated Linoleic acid, omega 7 fatty acid (CLA), Docosahexaenoic acid, omega 3 fatty acid (DHA), Eicosapentaenoic acid, omega 3 fatty acid (EPA), Oleic acid, omega 9 fatty acid (OA), Ricinoleic acid, omega 9 hydroxylated fatty acid (RA).
# PC3 cells are from a cell line derived from a hormone refractory prostate cancer and are known to overexpress HSD10. PC3 cells were seeded at a density of 4,000 cells per well in a 96 well plate, and incubated at 37° C., 5% CO2 for 48 hours in standard growth media (F12K nutrient media, 7% Fetal Calf Serum, 2 mM L-Glutamine, 45 mg/L ascorbic acid). The media was then removed by pipette and replaced with the appropriate drug treatment as follows: 20 μM, or 40 μM, or 60 μM, or 80 μM, or 100 μM ALA in PC3 treatment media (F12K nutrient media, 125 uM fatty acid free BSA, 2 mM L-Glutamine, 45 mg/L ascorbic acid); 20 μM, or 40 μM, or 60 μM, or 80 μM, or 100 μM AA in PC3 treatment media; 20 μM, or 40 μM, or 60 μM, or 80 μM, or 100 μM CLA in PC3 treatment media; 20 μM, or 40 μM, or 60 μM, or 80 μM, or 100 μM DHA in PC3 treatment media; 20 μM, or 40 μM, or 60 μM, or 80 μM, or 100 μM EPA in PC3 treatment media; 20 μM, or 40 μM, or 60 μM, or 80 μM, or 100 μM OA in PC3 treatment media; and 20 μM, or 40 μM, or 60 μM, or 80 μM, or 100 μM RA in PC3 treatment media. After incubation in the drug treatment for 72 hours at 37° C., 5% CO2, 50 μL Cell titre Blue Assay Reagent was added to each well and the plate return to incubation at 37° C., 5% CO2, for a further 24 hours, at which time the absorbance at 620 nm was recorded. The reduction of absorbance at 620 nm represents a higher metabolic rate, and the data below has been normalized such that 100% represents cells that have been grown in the presence of undrugged media, and 0% represents wells containing no cells.
# [2] = system: MCF7 cells; test: Cell growth inhibition, lysed cell LDH assay, breast cancer cell line; type: cell-based; settings: 50 μM Risperidone and/or 50 μM CLA, 1 μM Testosterone (T) where added, 96 hours;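 further: 100% is cells receiving no drug treatment and 0% is wells without cells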
# Experimental: To determine whether Risperidone could be effective in inhibiting growth of cancer cells overexpressing HSD10, a lysed cell LDH assay was conducted using cells taken from a prostate cancer cell line, a lung cancer cell line, a breast cancer cell line, an ovarian cancer cell line, each of which was known to overexpress HSD10, and a non-cancerous cell line.
# After incubation in the drug treatment for 96 hours at 37° C., 5% CO2, the supernatant was removed from all wells of cells, and cells washed with 200 μL PBS.
# After removal of the PBS from the cell cultures described above, cell number was determined using a lysed cell LDH assay. Cells were lysed with 0.9% Triton-X in PBS for 2 hours at 37° C., 5% CO2 and 50 μL of this cell lysate was transferred to a fresh 96 well plate. About 50 μL of CytoTox 96 assay reagent was added to the transferred cell lysate and this mixture was incubated at room temperature in the dark for 20 minutes. After the addition of 50 μL stop reagent, the optical absorbance was determined for each incubated mixture at 492 nm. […] The mean and standard error was calculated from at least 3 wells.
structure (smiles),measurement,setting,value
"CCCCCC/C=C/C=C\CCCCCCCC(=O)O [CLA, 9Z, 11E conjugated Linoleic acid]",Cellular Metabolic Activity,[1]; 20 μM fatty acid,86 ± 2.4%
same,Cellular Metabolic Activity,[1]; 40 μM fatty acid,71 ± 3.8%
same,Cellular Metabolic Activity,[1]; 60 μM fatty acid,59 ± 2.8%
same,Cellular Metabolic Activity,[1]; 80 μM fatty acid,63 ± 4.0%
same,Cellular Metabolic Activity,[1]; 100 μM fatty acid,67 ± 5.0%
same,Percentage of Lysed Cells,[2],56 ± 2.6%
